Read-outs that look alike come from different tables or passages of the source.
Assays:
cells = assay: Plaque reduction and cytotoxicity in cells; type: cell-based
Excerpt: It is well known in virology that cells injured due to toxic substances will not support the growth of viruses.

polio and Vaccinia virus = settings: cytopathic effect; cited from earlier work
Influenza A PR8 virus = test system: Influenza A PR8 virus; parameters: toxicity at upper limit: dose or concentration left out as unconfirmed; settings: cited from earlier work

Structure (SMILES) | toxic effects on the cells (cells; 10 to 100 mg/ml) | antiviral activity, plaque reduction (cells; below the level of toxicity) | No. animals surviving after 6-9 days (Herpes virus; total dose 5 μg) | No. animals surviving after 6-9 days (Herpes virus; total dose .0005 μg) | No. animals surviving when 100% (or given fraction) of controls are dead (Herpes virus; total dose .0005 μg) | Survivors (Herpes virus; total dose .0005 μg) | No. animals surviving after 6-9 days (Herpes virus; total dose .005 μg) | No. animals surviving when 100% (or given fraction) of controls are dead (Herpes virus; total dose .005 μg) | Survivors (Herpes virus; total dose .005 μg) | No. animals surviving after 6-9 days (Herpes virus; total dose .05 μg) | No. animals surviving when 100% (or given fraction) of controls are dead (Herpes virus; total dose .05 μg) | Survivors (Herpes virus; total dose .05 μg) | No. animals surviving after 6-9 days (Herpes virus; total dose .5 μg) | Survivors (Herpes virus; total dose .5 μg) | concentrations with antiviral activity (polio and Vaccinia virus) | toxicity at upper limit (Influenza A PR8 virus) | inhibition (Influenza A PR8 virus; lower limit, 0.125 mg per ml)
NN.O=S(=O)(O)O [Hydrazine Sulfate, hydrazine sulfate] | toxic effects on the cells were clearly evident | no antiviral activity was demonstrated | 3 | 3 | 3 | 3 | 4 | 4 | 4 | 1 | 1 | 0 | 3 | 1 | 8 to 66 µg/mL | – | –
CC(C=NNC(=N)N)=NNC(=N)N [Methylgloxal-bis-guanylhydrazone] | – | – | – | – | – | – | – | – | – | – | – | – | – | – | – | toxic | Ninety
